Reference: the NIST ThermoML archive (doi:10.1021/je200637v)
Numbers after ± are expanded uncertainties.

Assay: activity coefficient (dimensionless); of the first substance listed, at infinite dilution; xn = mol fraction of the nth substance listed
Settings: Liquid, Chromatography, x1 = 0

Row | Compound | activity coefficient (322.85 K) | activity coefficient (332.65 K) | activity coefficient (343.15 K)
1 | Cc1ccccc1C [1,2-dimethylbenzene] + CCCCCCCCCC[N+](C)(C)C.O=S(=O)([N-]S(=O)(=O)C(F)(F)F)C(F)(F)F | 1.03 ± 0.03 | 1.07 ± 0.03 | 1.07 ± 0.03
2 | Cc1ccccc1C [1,2-dimethylbenzene] + CCCCCCCC[N+](C)(C)C.O=S(=O)([N-]S(=O)(=O)C(F)(F)F)C(F)(F)F | 1.24 ± 0.04 | 1.26 ± 0.04 | 1.25 ± 0.04
3 | Cc1ccccc1C [1,2-dimethylbenzene] + CCCCCCCC[N+](CCCCCCCC)(CCCCCCCC)CCCCCCCC.O=S(=O)([N-]S(=O)(=O)C(F)(F)F)C(F)(F)F | – | 0.57 ± 0.03 | 0.58 ± 0.03
4 | Cc1ccccc1C [1,2-dimethylbenzene] + CCCC[N+](C)(CCCC)CCCC.O=S(=O)([N-]S(=O)(=O)C(F)(F)F)C(F)(F)F | 1.38 ± 0.05 | 1.46 ± 0.06 | 1.46 ± 0.06
5 | Cc1cccc(C)c1 [1,3-dimethylbenzene] + CCCCCCCCCC[N+](C)(C)C.O=S(=O)([N-]S(=O)(=O)C(F)(F)F)C(F)(F)F | 1.11 ± 0.03 | 1.14 ± 0.03 | 1.11 ± 0.03
6 | Cc1cccc(C)c1 [1,3-dimethylbenzene] + CCCCCCCC[N+](C)(C)C.O=S(=O)([N-]S(=O)(=O)C(F)(F)F)C(F)(F)F | 1.39 ± 0.05 | 1.39 ± 0.05 | 1.38 ± 0.05
7 | Cc1cccc(C)c1 [1,3-dimethylbenzene] + CCCCCCCC[N+](CCCCCCCC)(CCCCCCCC)CCCCCCCC.O=S(=O)([N-]S(=O)(=O)C(F)(F)F)C(F)(F)F | – | 0.6 ± 0.03 | 0.62 ± 0.03
8 | Cc1cccc(C)c1 [1,3-dimethylbenzene] + CCCC[N+](C)(CCCC)CCCC.O=S(=O)([N-]S(=O)(=O)C(F)(F)F)C(F)(F)F | 1.49 ± 0.06 | 1.56 ± 0.06 | 1.56 ± 0.06
9 | Cc1ccc(C)cc1 [1,4-dimethylbenzene] + CCCCCCCCCC[N+](C)(C)C.O=S(=O)([N-]S(=O)(=O)C(F)(F)F)C(F)(F)F | 1.12 ± 0.03 | 1.15 ± 0.04 | 1.13 ± 0.03
10 | Cc1ccc(C)cc1 [1,4-dimethylbenzene] + CCCCCCCC[N+](C)(C)C.O=S(=O)([N-]S(=O)(=O)C(F)(F)F)C(F)(F)F | 1.38 ± 0.05 | 1.39 ± 0.05 | 1.37 ± 0.05
11 | Cc1ccc(C)cc1 [1,4-dimethylbenzene] + CCCCCCCC[N+](CCCCCCCC)(CCCCCCCC)CCCCCCCC.O=S(=O)([N-]S(=O)(=O)C(F)(F)F)C(F)(F)F | – | 0.6 ± 0.03 | 0.62 ± 0.03
12 | Cc1ccc(C)cc1 [1,4-dimethylbenzene] + CCCC[N+](C)(CCCC)CCCC.O=S(=O)([N-]S(=O)(=O)C(F)(F)F)C(F)(F)F | 1.51 ± 0.06 | 1.62 ± 0.07 | 1.56 ± 0.06
13 | C1COCCO1 [1,4-dioxane] + CCCCCCCCCC[N+](C)(C)C.O=S(=O)([N-]S(=O)(=O)C(F)(F)F)C(F)(F)F | 0.56 ± 0.03 | 0.57 ± 0.03 | 0.57 ± 0.03
14 | C1COCCO1 [1,4-dioxane] + CCCCCCCC[N+](C)(C)C.O=S(=O)([N-]S(=O)(=O)C(F)(F)F)C(F)(F)F | 0.62 ± 0.03 | 0.62 ± 0.03 | 0.61 ± 0.03
15 | C1COCCO1 [1,4-dioxane] + CCCCCCCC[N+](CCCCCCCC)(CCCCCCCC)CCCCCCCC.O=S(=O)([N-]S(=O)(=O)C(F)(F)F)C(F)(F)F | 0.47 ± 0.03 | 0.47 ± 0.03 | 0.47 ± 0.03
16 | C1COCCO1 [1,4-dioxane] + CCCC[N+](C)(CCCC)CCCC.O=S(=O)([N-]S(=O)(=O)C(F)(F)F)C(F)(F)F | 0.61 ± 0.03 | 0.67 ± 0.03 | 0.67 ± 0.03
17 | C#CCCCCC [1-heptyne] + CCCCCCCCCC[N+](C)(C)C.O=S(=O)([N-]S(=O)(=O)C(F)(F)F)C(F)(F)F | 1.95 ± 0.09 | 2.02 ± 0.09 | 1.97 ± 0.09
18 | C#CCCCCC [1-heptyne] + CCCCCCCC[N+](C)(C)C.O=S(=O)([N-]S(=O)(=O)C(F)(F)F)C(F)(F)F | 2.48 ± 0.11 | 2.46 ± 0.11 | 2.39 ± 0.11
19 | C#CCCCCC [1-heptyne] + CCCCCCCC[N+](CCCCCCCC)(CCCCCCCC)CCCCCCCC.O=S(=O)([N-]S(=O)(=O)C(F)(F)F)C(F)(F)F | 0.84 ± 0.03 | 0.86 ± 0.03 | 0.87 ± 0.03
20 | C#CCCCCC [1-heptyne] + CCCC[N+](C)(CCCC)CCCC.O=S(=O)([N-]S(=O)(=O)C(F)(F)F)C(F)(F)F | 2.79 ± 0.13 | 2.89 ± 0.13 | 2.85 ± 0.13
21 | C#CCCCC [1-hexyne] + CCCCCCCCCC[N+](C)(C)C.O=S(=O)([N-]S(=O)(=O)C(F)(F)F)C(F)(F)F | 1.61 ± 0.06 | 1.63 ± 0.07 | 1.57 ± 0.06
